Assay results: paper PMC8151276, “An Integrated Approach toward NanoBRET Tracers for Analysis of GPCR Ligand Engagement” (Molecules, 2021)

Experiments:
Format in all cases: binding
[1] = biological target: T1, CCR3 (Homo sapiens, UniProt P51677); experiment: NanoBRET screen HiBiT-CCR3 in HEK293
T1 construct: purchased Promega (in-house HiBiT-GPCR construct library, NanoBRET)
T1 sequence (P51677 1-355): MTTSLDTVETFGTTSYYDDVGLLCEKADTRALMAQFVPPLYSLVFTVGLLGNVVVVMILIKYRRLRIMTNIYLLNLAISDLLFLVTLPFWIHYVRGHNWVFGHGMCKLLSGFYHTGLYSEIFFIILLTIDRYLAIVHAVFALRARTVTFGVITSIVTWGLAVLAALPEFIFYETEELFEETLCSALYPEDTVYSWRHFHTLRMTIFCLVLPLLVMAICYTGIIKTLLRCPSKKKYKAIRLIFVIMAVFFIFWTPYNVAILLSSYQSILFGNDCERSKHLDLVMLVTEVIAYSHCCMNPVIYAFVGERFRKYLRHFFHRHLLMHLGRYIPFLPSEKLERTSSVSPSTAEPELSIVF
Protocol: (§1) Each tracer candidate was screened across the entire library of HiBiT-GPCR constructs using NanoBRET as the detection modality. As depicted in Figure 4A, the specificity of interactions was evaluated through decrease in BRET due to competitive displacement of a bound tracer by excess parental compound. Each tracer was analyzed for binding to each HiBiT-GPCR fusion in the absence and in the presence of competing parental compound. Briefly, HEK293 cells were transfected with HiBiT-GPCR constructs diluted into promoterless DNA to reduce expression and maximize translocation to the cell surface. Each tracer candidate was then screened at concentrations of 1 μM and 0.1 μM across cells expressing these fusions. Cells were treated for 1.5 h with tracer either alone or in the presence of 20 μM competing parental compound (i.e., control). BRET was measured upon addition of purified LgBiT and subsequent complementation with HiBiT genetically fused to a GPCR. The specificity of interactions was assessed through a decrease in BRET signal due to competitive displacement of the bound tracer. To further gauge the robustness of these interactions, the fold response over the control (i.e., BRETtracer/BRETcontrol) was calculated. We chose a 1.5-fold response, which translates to ≥7-fold signal over noise as the minimal threshold required to score an interaction as positive. […]. Below we highlight the screening results obtained for our exemplary fluorescent tracers based on Clozapine, Amitriptyline and AZD1283.
(§2) HiBiT-GPCR DNA constructs were diluted in 10 mM Tris pH 8 to a final concentration of 0.01 μg/μL, arrayed in 96-well plates and stored at −20 °C. For transfection, HEK293 cells were suspended in Opti-MEM (without phenol red) supplemented with 2% fetal bovine serum (Seradigm) and 100 units/mL penicillin–streptomycin (Gibco) at a final concentration of 220,000 cells/mL and dispensed into white 96-well plates at 90 μL/well. Subsequent transfections and screens were carried using an Agilent Bravo Automated Liquid Handling Platform. First, the 96-well HiBiT DNA arrays were diluted 25-fold in Opti-MEM (without serum or phenol red) to a final concentration of 0.0004 μg/μL and 20 μL of the diluted DNAs were transferred into new 96-well plates. Next, promoterless carrier DNA (1 μg/μL) was diluted 25-fold (0.04 μg/μL) and then dispensed into the diluted arrays at 20 μL/well. Following brief mixing, Viafect transfection reagent (Promega) diluted 16-fold into Opti-MEM was dispensed into the plates at 40 μL/well. After mixing by pipetting, plates were incubated for 10 min on the pipetting station deck. The DNA-transfection reagent complexes were then added to plates containing cells. To facilitate the screen, 10 μL of DNA-transfection reagent complexes were added in duplicates to the top 4 and bottom 4 rows, resulting in two identical 48-well arrays per plate. Plates with transfected cells were incubated for 18–20 h at 37 °C/5% CO2. A screen of each tracer across the entire library using two different concentrations requires duplicate plates of transfected cells. Depending on the number of tracers being screened, transfections can be scaled up using the same ratios. The next day, for each tracer, four 20× screening solutions in tracer dilution buffer (Promega) were prepared: two duplicates at final concentration of 20 μM and two duplicates at a final concentration of 2 μM. A competing unmodified compound was added to one of each duplicate at a final concentration of 400 μM. The four resulting solutions were diluted 4-fold in Opti-MEM without serum or phenol red to generate 5× solutions (5 µM and 0.5 µM tracer +/− 100 μM competing compound). To screen the library, a BioTek MultiFlo FX liquid dispenser was used to dispense 22.5 µL of tracer solution to the top 4 rows and 22.5 µL tracer + competing compound solution to the 4 bottom rows. Plates were briefly mixed on an orbital shaker and incubated for 1.5 h at room temperature. […]

[2] = biological target: T2, HTR1B (Homo sapiens, UniProt P28222); experiment: NanoBRET screen HiBiT-HTR1B in HEK293
T2 construct: purchased Promega (in-house HiBiT-GPCR construct library, NanoBRET)
T2 sequence (P28222 whole entry): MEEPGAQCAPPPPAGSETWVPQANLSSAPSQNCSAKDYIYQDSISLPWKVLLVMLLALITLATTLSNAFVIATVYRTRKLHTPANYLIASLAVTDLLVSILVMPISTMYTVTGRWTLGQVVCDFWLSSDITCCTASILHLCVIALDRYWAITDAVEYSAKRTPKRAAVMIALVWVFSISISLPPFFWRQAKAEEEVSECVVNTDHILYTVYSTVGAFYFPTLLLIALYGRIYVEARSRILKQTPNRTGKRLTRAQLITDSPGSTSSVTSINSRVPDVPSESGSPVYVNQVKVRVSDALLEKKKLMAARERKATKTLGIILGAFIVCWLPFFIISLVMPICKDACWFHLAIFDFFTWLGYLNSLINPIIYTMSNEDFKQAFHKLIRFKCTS
Protocol: as §1, §2

[3] = biological target: T3, LGR6 (Homo sapiens, UniProt Q9HBX8); experiment: NanoBRET screen HiBiT-LGR6 in HEK293
T3 construct: purchased Promega (in-house HiBiT-GPCR construct library, NanoBRET)
T3 sequence (Q9HBX8 25-967): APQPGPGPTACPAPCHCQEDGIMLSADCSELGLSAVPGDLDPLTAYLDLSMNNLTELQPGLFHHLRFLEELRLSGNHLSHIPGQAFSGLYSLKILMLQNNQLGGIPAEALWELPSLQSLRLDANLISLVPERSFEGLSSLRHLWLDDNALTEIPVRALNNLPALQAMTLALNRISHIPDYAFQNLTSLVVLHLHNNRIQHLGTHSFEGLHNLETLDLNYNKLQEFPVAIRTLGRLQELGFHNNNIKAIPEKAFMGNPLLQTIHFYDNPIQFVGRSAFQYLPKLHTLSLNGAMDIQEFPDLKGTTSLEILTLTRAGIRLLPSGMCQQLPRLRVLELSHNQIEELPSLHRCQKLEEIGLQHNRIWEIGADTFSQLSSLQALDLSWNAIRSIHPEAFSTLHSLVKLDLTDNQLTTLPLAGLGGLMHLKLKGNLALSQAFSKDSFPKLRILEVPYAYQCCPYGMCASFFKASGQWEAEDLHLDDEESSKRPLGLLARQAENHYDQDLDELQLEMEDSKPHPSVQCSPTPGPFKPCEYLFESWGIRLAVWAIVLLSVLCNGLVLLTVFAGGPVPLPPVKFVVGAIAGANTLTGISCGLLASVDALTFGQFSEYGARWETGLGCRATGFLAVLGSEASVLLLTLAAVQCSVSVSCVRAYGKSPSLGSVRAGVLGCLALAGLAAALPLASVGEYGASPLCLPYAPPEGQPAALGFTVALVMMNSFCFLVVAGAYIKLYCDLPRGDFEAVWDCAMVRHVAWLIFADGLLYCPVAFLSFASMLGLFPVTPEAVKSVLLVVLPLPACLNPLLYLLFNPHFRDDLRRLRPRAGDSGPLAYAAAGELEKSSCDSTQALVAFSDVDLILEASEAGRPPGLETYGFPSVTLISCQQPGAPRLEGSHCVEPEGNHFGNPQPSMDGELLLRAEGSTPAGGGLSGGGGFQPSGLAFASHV
Protocol: as §1, §2

[4] = biological target: T4, LTB4R (Homo sapiens, UniProt Q15722); experiment: NanoBRET screen HiBiT-LTB4R in HEK293
T4 construct: purchased Promega (in-house HiBiT-GPCR construct library, NanoBRET)
T4 sequence (Q15722 whole entry): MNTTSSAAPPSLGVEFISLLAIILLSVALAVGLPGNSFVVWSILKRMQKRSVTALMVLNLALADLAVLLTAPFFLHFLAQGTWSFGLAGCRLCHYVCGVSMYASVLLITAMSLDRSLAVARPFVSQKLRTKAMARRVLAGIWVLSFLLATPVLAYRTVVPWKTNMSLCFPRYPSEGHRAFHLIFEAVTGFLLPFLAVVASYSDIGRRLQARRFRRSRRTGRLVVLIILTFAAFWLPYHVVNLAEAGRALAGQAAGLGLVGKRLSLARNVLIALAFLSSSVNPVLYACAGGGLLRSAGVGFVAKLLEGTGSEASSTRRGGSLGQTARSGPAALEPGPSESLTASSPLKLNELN
Protocol: as §1, §2

## CN(CCC=C1c2ccccc2CCc2ccccc21)C(=O)CCOCCOCCOCCOCCNC(=O)CCc1ccc2n1[B-](F)(F)[N+]1=C(c3ccc[nH]3)C=CC1=C2 [Amitriptyline-e-2-NB590]
[1]; tracer at 1μM
  NanoBRET Fold Response: 0.86
[2]; tracer at 1μM
  NanoBRET Fold Response: 1.01
[3]; tracer at 1μM
  NanoBRET Fold Response: 1.16
[4]; tracer at 1μM
  NanoBRET Fold Response: 1.03

## O=C(CCc1ccc2n1[B-](F)(F)[N+]1=C(c3ccc[nH]3)C=CC1=C2)NCc1ccc(C(=O)NCCOCCOCCNCC(O)COc2cccc3ccccc23)cc1 (stereo not shown) [Propranolol-3-NB590]
[1]; CCR3, 0.1μM
  NanoBRET Fold Response: 1.04
[1]; CCR3, 1μM
  NanoBRET Fold Response: 1.01
[2]; HTR1B, 0.1μM
  NanoBRET Fold Response: 0.99
[2]; HTR1B, 1μM
  NanoBRET Fold Response: 1.06
[3]; LGR6, 0.1μM
  NanoBRET Fold Response: 1.26
[3]; LGR6, 1μM
  NanoBRET Fold Response: 1.01
[4]; LTB4R, 0.1μM
  NanoBRET Fold Response: 0.97
[4]; LTB4R, 1μM
  NanoBRET Fold Response: 1.02

## COc1ccc2c(n1)c(CCNC(C)=O)cn2CCNC(=O)CCc1ccc2n1[B-](F)(F)[N+]1=C(c3ccc[nH]3)C=CC1=C2 [Azamelatonin-1-NB590]
[1]; 0.1μM tracer
  NanoBRET Fold Response: 1.27
[1]; 1μM tracer
  NanoBRET Fold Response: 0.96
[2]; 0.1μM tracer
  NanoBRET Fold Response: 0.74
[2]; 1μM tracer
  NanoBRET Fold Response: 0.74
[3]; 0.1μM tracer
  NanoBRET Fold Response: 1.03
[3]; 1μM tracer
  NanoBRET Fold Response: 0.55
[4]; 0.1μM tracer
  NanoBRET Fold Response: 0.97
[4]; 1μM tracer
  NanoBRET Fold Response: 0.97

## O=C(CCOCCOCCOCCOCCNC(=O)CCc1ccc2n1[B-](F)(F)[N+]1=C(c3ccc[nH]3)C=CC1=C2)NCCCN1CCN(C2=Nc3ccccc3Oc3ccc(Cl)cc32)CC1 [Loxapine-a-2-NB590]
[1]; CCR3, tracer 0.1μM
  NanoBRET Fold Response: 1.02
[1]; CCR3, tracer 1μM
  NanoBRET Fold Response: 1.02
[2]; HTR1B, tracer 0.1μM
  NanoBRET Fold Response: 2.42
[2]; HTR1B, tracer 1μM
  NanoBRET Fold Response: 2.84
[3]; LGR6, tracer 0.1μM
  NanoBRET Fold Response: 0.91
[3]; LGR6, tracer 1μM
  NanoBRET Fold Response: 1.25
[4]; LTB4R, tracer 0.1μM
  NanoBRET Fold Response: 1.05
[4]; LTB4R, tracer 1μM
  NanoBRET Fold Response: 0.96

## CC(C)N(CC[C@H](c1ccccc1)c1cc(CCNC(=O)c2ccc(CNC(=O)CCc3ccc4n3[B-](F)(F)[N+]3=C(c5ccc[nH]5)C=CC3=C4)cc2)ccc1O)C(C)C [Tolterodine-BZ-NB590]
[1]; CCR3, tracer 0.1μM
  NanoBRET Fold Response: 0.98
[1]; CCR3, tracer 1μM
  NanoBRET Fold Response: 0.72
[2]; HTR1B, tracer 0.1μM
  NanoBRET Fold Response: 1.12
[2]; HTR1B, tracer 1μM
  NanoBRET Fold Response: 1.33
[3]; LGR6, tracer 0.1μM
  NanoBRET Fold Response: 1.31
[3]; LGR6, tracer 1μM
  NanoBRET Fold Response: 0.94
[4]; LTB4R, tracer 0.1μM
  NanoBRET Fold Response: 0.95
[4]; LTB4R, tracer 1μM
  NanoBRET Fold Response: 1.03

## O=C(CCc1ccc2n1[B-](F)(F)[N+]1=C(c3ccc[nH]3)C=CC1=C2)NCCOCCOCCNC(=O)OCCOCCN1CCN(C2=Nc3ccccc3Sc3ccccc32)CC1 [Quetiapine-a-2-NB590]
[1]; CCR3, tracer 0.1μM
  NanoBRET Fold Response: 1.11
[1]; CCR3, tracer 1μM
  NanoBRET Fold Response: 0.98
[2]; HTR1B, tracer 0.1μM
  NanoBRET Fold Response: 1.03
[2]; HTR1B, tracer 1μM
  NanoBRET Fold Response: 1.58
[3]; LGR6, tracer 0.1μM
  NanoBRET Fold Response: 0.93
[3]; LGR6, tracer 1μM
  NanoBRET Fold Response: 0.96
[4]; LTB4R, tracer 0.1μM
  NanoBRET Fold Response: 1.27
[4]; LTB4R, tracer 1μM
  NanoBRET Fold Response: 1.40

## CN1CCN(C2=Nc3cc(Cl)ccc3Nc3ccc(CNC(=O)CCOCCOCCOCCOCCNC(=O)CCc4ccc5n4[B-](F)(F)[N+]4=C(c6ccc[nH]6)C=CC4=C5)cc32)CC1 [Clozapine-b-2-NB590]
[1]; CCR3, 0.1μM tracer
  NanoBRET Fold Response: 0.98
[1]; CCR3, 1μM tracer
  NanoBRET Fold Response: 1.00
[2]; HTR1B, 0.1μM tracer
  NanoBRET Fold Response: 2.07
[2]; HTR1B, 1μM tracer
  NanoBRET Fold Response: 2.97
[3]; LGR6, 0.1μM tracer
  NanoBRET Fold Response: 1.31
[3]; LGR6, 1μM tracer
  NanoBRET Fold Response: 0.89
[4]; LTB4R, 0.1μM tracer
  NanoBRET Fold Response: 1.04
[4]; LTB4R, 1μM tracer
  NanoBRET Fold Response: 1.04

## CC(C)N(CC[C@H](c1ccccc1)c1cc(CCNC(=O)CCOCCOCCOCCOCCNC(=O)CCc2ccc3n2[B-](F)(F)[N+]2=C(c4ccc[nH]4)C=CC2=C3)ccc1O)C(C)C [Tolterodine-2-NB590]
[1]; CCR3, tracer 0.1μM
  NanoBRET Fold Response: 1.63
[1]; CCR3, tracer 1μM
  NanoBRET Fold Response: 1.01
[2]; HTR1B, tracer 0.1μM
  NanoBRET Fold Response: 0.79
[2]; HTR1B, tracer 1μM
  NanoBRET Fold Response: 1.12
[3]; LGR6, tracer 0.1μM
  NanoBRET Fold Response: 1.39
[3]; LGR6, tracer 1μM
  NanoBRET Fold Response: 1.36
[4]; LTB4R, tracer 0.1μM
  NanoBRET Fold Response: 0.92
[4]; LTB4R, tracer 1μM
  NanoBRET Fold Response: 0.96

## CN(C)CCC=C1c2ccccc2CCc2ccc(C(=O)NCCNC(=O)CCOCCOCCOCCOCCNC(=O)CCc3ccc4n3[B-](F)(F)[N+]3=C(c5ccc[nH]5)C=CC3=C4)cc21 [Amitriptyline-a-2-NB590]
[1]; tracer at 0.1μM
  NanoBRET Fold Response: 1.02
[1]; tracer at 1μM
  NanoBRET Fold Response: 0.95
[2]; tracer at 0.1μM
  NanoBRET Fold Response: 0.98
[3]; tracer at 0.1μM
  NanoBRET Fold Response: 0.93
[3]; tracer at 1μM
  NanoBRET Fold Response: 0.97
[4]; tracer at 0.1μM
  NanoBRET Fold Response: 1.02
[4]; tracer at 1μM
  NanoBRET Fold Response: 1.00
